Patent publication US20260102407A1, “TREATMENT METHODS” (priority 2020, published 2026)

How the values were obtained:
VCAM-1 = assay: Matrigel plug assay, VCAM-1 staining; type: in vivo; conditions: C57BL/6 mice; 2.5 mg/mouse; 7 days
Protocol: Matrigel plug assay. Matrigel (500 μl) containing VEGF-A165 (100 ng/ml), heparin (10U) and BT2 or BT3 (2.5 mg/mouse) or its vehicle (saline containing 0.01% DMSO and 0.5% Tween 80) was injected subcutaneously into the left flanks of male 8 week-old C57BL/6 mice. After 7d the mice were sacrificed by CO2 asphyxiation and the plugs carefully removed. Formalin-fixed paraffin embedded sections were prepared from Matrigel plugs for immunohistological assessment. Heat-induced epitope retrieval was applied to all deparaffinized sections (4 μm Superfrost slides) in citrate buffer, pH 6 for 5 min at 110° C. Immunostaining for all groups with a given antibody was performed simultaneously and development time was identical. […]
Slides were scanned using an Aperio ScanScope XT slide scanner (Leica Biosystems, Mt Waverley, Vic Australia) and images captured using ImageScope software (Leica Biosystems). Positive intraplug staining was assessed using Image-Pro Plus software (Cybernetics, Bethesda, MD) in 5-12 randomly selected fields of view for each plug photographed under 10× (CD31), 20× (VCAM-1) and 40× (FosB) objectives and expressed as integrated optical density (IOD, the product of calibrated intensity (optical density) and area, i.e. IOD=intensity (mean)×area) (Media Cybernetics) (Liu, H., et al., Sci Rep 6, 21319 (2016)). […]

rabbits = assay: GLP ocular tolerance study, single intravitreal injection; type: in vivo, rabbit; conditions: single intravitreal injection 10 μg/50 μl, after 28 days
pERK = assay: Immunohistochemical staining of rat retina, pERK; type: in vivo; conditions: lasered rat retinas
From the text: Rat choroidal laser injury model. Male Brown Norway pigmented rats (8-14 week-old) were anesthetized by an intramuscular injection of Rompun® (xylazine)/Imalgene® (ketamine). Pupils were dilated by instillation of one drop of 0.5% tropicamide before laser burn. Six burns were created in both eyes on Day 0 by applying 170 mW of 532 nm laser light (Viridis laser, Quantel, France) on 75 μm spots around the optic nerve, between the main retinal vessel branches, for 0.1s, through the slit lamp and contact lens. Production of a bubble at the time of laser application confirmed the rupture of Bruch's membrane. […] After anaesthesia, 10% sodium fluorescein (250 μl/100 g body weight) was injected subcutaneously, and ocular fluorescence was recorded 10 min after dye injection. Fluorescein leakage was evaluated on Days 14 and 21 in the angiograms by two examiners masked to the study groups and graded for fluorescein intensity as follows: score 0: no leakage; 1: slightly stained; 2: moderately stained; 3: strongly stained.
Immunohistochemical staining of rat retina. […] IOD of positive staining (red chromogen) was assessed for CD31, VEGF-A165, pERK, FosB and VCAM-1 using Image-Pro Plus software (Cybernetics, Bethesda, MD). IOD in IPL and INL was quantified for CD31; OPL to OS for VEGF-A165; INL to ONL for pERK; GCL to OS for FosB; OLM for VCAM-1, using Image-Pro Plus. […]

## CCOC(=O)Nc1ccc2c(c1)C(=O)N(CC)c1ccccc1O2 [BT2, (10-ethyl-11-oxo-10,11-dihydro-dibenzo[b,f][1,4]oxazepin-2-yl)-carbamic acid ethyl ester]
VCAM-1
  VCAM-1 immunoreactivity in Matrigel plugs: inhibited
rabbits
  ocular tolerance: well tolerated macroscopically and histologically
pERK
  inducible pERK staining in the INL, OPL and ONL: suppressed inducible pERK staining
